{"source": "patent US12135326B2", "about": "(priority 2019, dated 2024)", "key": {"WT α-HL nanopore [1]": {"target": "T1, WT α-HL nanopore (Staphylococcus aureus, UniProt P09616)", "T1 sequence (P09616 27-319 limits assumed)": "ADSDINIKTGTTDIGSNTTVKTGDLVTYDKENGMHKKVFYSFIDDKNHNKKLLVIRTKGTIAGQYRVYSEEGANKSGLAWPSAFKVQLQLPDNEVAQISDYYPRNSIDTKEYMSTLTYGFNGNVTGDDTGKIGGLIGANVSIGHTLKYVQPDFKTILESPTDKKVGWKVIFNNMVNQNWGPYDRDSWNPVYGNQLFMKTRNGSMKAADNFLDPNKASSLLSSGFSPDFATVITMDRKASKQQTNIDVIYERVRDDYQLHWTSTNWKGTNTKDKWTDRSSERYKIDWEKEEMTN", "format": "binding"}, "WT α-HL nanopore [2]": {"target": "T1, WT α-HL nanopore", "format": "binding", "remark": "listed apart in the source"}}, "note": "Values joined by “and” are separate entries in the source; they are usually repeats but may differ in a detail not shown here. Equal values may be shown once."}
{"substance": "Trimethyl-β-cyclodextrin [TriM-β-CD]", "values": [{"measurement": "Ip (mean blockage depth)", "setting": "WT α-HL nanopore [1]", "result": "0.065±0.002"}, {"measurement": "τoff", "setting": "WT α-HL nanopore [1]", "result": "0.386 ± 0.392", "unit": "s"}, {"measurement": "1/τoff", "setting": "WT α-HL nanopore [2]", "result": "2.515 ± 0.440 s⁻¹ and 2.437 ± 0.449 s⁻¹ and 2.953 ± 0.616 s⁻¹ and 3.640 ± 0.330 s⁻¹"}, {"measurement": "mean Fp (mean blockage depth)", "setting": "WT α-HL nanopore [2]", "result": "0.078±0.010"}, {"measurement": "mean τoff (dwell time constant)", "setting": "WT α-HL nanopore [2]", "result": "0.347 ± 0.067", "unit": "s"}]}
{"substance": "5′-GATAGTGAGCCAAATTTAAA-3′ [oligomeric ssDNA]", "values": [{"measurement": "mean value of % F (blockade level % Fb, center value±FWHM)", "setting": "WT α-HL nanopore [2]", "result": "0.289±0.175"}, {"measurement": "sensing / translocation through α-HL nanopore by DOP (in words)", "setting": "WT α-HL nanopore [2]", "result": "able to pass through the α-HL nanopore"}]}
